7 compounds from DBAASP can be followed below.

Values after ≈ are worked out from the molar mass of the structure shown. Values joined by “and” are separate entries in the source; they are usually repeats but may differ in a detail not shown here. Equal values may be shown once.

Test systems include Escherichia coli 078; Escherichia coli UB1005; Streptococcus agalactiae; Escherichia coli AB94012; Bacillus subtilis; Candida albicans SC5314; Escherichia coli; Listeria monocytogenes; Staphylococcus aureus.
Holding throughout (assay): ≥ marks a high value that may be exact or a test limit, other limits are often not marked, values filed in µg/mL are converted to µM
The test system of test [1] is Escherichia coli ATCC 25922.
Test [2] relates to Lacticaseibacillus rhamnosus 7469.
The subject of test [3] is Pseudomonas aeruginosa ATCC 27853.
Test [4] has as its system Salmonella enterica subsp. enterica serovar Pullorum ATCC 7913.
Test [5] has as its system Salmonella enterica subsp. enterica serovar Typhimurium ATCC 14028.
Test [6] concerns Salmonella enterica subsp. enterica serovar Typhimurium C77-31.
Test [7] relates to Staphylococcus aureus ATCC 25923.
Test [8] relates to Staphylococcus aureus ATCC 29213.
In test [9] the test system is Staphylococcus epidermidis ATCC 12228.
Test [10] has as its system Streptococcus agalactiae CICC 10465.
The test system of test [11] is Streptococcus thermophilus YM-C.
In test [12] the test system is Pseudomonas aeruginosa ATCC 9027.
In test [13] the test system is Staphylococcus aureus AB6538.
For test [14], the system named is Bacillus subtilis CMCC 63501.
For test [15], the system named is Escherichia coli CICC 10670.
The test system of test [16] is Listeria monocytogenes ATCC 19115.
Test [17] relates to Staphylococcus aureus ATCC 6538.
The test system of test [18] is Acinetobacter baumannii ATCC 19606.
The test system of test [19] is Candida albicans ATCC 90028.
Test [20] concerns Cryptococcus neoformans ATCC 208821.
Test [21] concerns Klebsiella pneumoniae ATCC 700603.
Test [22] deals with Staphylococcus aureus ATCC 43300.
Test [23] relates to Staphylococcus aureus SH1000.
Test [24] relates to Escherichia coli D31 CGSC 5165.
Test [25] deals with Pseudomonas aeruginosa ATCC 47085.
Test [26] has as its system Staphylococcus aureus ATCC 35556.
The subject of test [27] is Bacillus subtilis ATCC 6633.
In test [28] the test system is Candida albicans 08030401.
Test [29] concerns Candida albicans 08032815.
The test system of test [30] is Candida albicans ATCC 10231.
In test [31] the test system is Candida albicans ATCC 2002.
Test [32] relates to Escherichia coli BNCC 133264.
For test [33], the system named is Pseudomonas aeruginosa BNCC 125486.
The test system of test [34] is Staphylococcus aureus ATCC 2592.
For test [35], the system named is Staphylococcus aureus BNCC 186335.

By MIC is commonly meant the smallest concentration in the dilution series that meets the test's criterion for growth inhibition. The low end stands for inhibition by little substance, the high end for a need for much substance. For the compound `CC[C@H](C)[C@H](NC(=O)[C@H](CC(C)C)NC(=O)[C@@H](NC(=O)[C@@H](N)CC(=O)O)[C@@H](C)CC)C(=O)N[C@H](C(=O)N[C@H](C(=O)NCC(=O)NCC(=O)N[C@@H](CCCCN)C(=O)N[C@@H](CCC(=O)O)C(=O)N[C@@H](CCCN=C(N)N)C(=O)N[C@@H](CCCCN)C(=O)N[C@@H](CCCCN)C(=O)N[C@@H](CCCN=C(N)N)C(=O)N[C@@H](CCCN=C(N)N)C(=O)N[C@@H](CCCN=C(N)N)C(N)=O)C(C)C)[C@@H](C)CC` [DILIIVGGKERKKRRR], the MIC against Escherichia coli 078 is not below 64 µM; in [1], more than 64 µM; against Escherichia coli UB1005, not below 64 µM; in [2] it was not below 64 µM; in test [3], more than 64 µM; in test [4], not below 64 µM. Moreover, the MIC in test [5] is more than 64 µM; in test [6] it was not below 64 µM; in test [7] it was more than 64 µM; in [8] it was more than 64 µM; in [9] it was more than 64 µM; in test [10], 4 µM (≈ 7.75 µg/mL). Moreover, the MIC against Streptococcus agalactiae was 4 µM (≈ 7.75 µg/mL); in test [11], not below 64 µM.
Take `CC[C@H](C)[C@H](NC(=O)[C@H](CCCCN)NC(=O)[C@@H]1CCCN1C(=O)[C@H](CC(C)C)NC(=O)[C@@H](NC(=O)[C@H](CCCCN)NC(=O)CNC(=O)[C@H](CC(C)C)NC(=O)[C@@H](NC(=O)[C@H](CCCCN)NC(=O)CNC(=O)[C@H](CC(C)C)NC(=O)[C@H](CC(C)C)NC(=O)CNC(=O)[C@H](CC(C)C)NC(=O)[C@@H](N)Cc1ccccc1)C(C)C)C(C)C)C(=O)N[C@@H](Cc1ccccc1)C(=O)N[C@@H](CCCCN)C(N)=O` [FLGLLGKVLGKVLPKIFK]: the MIC with Escherichia coli AB94012 is 6.34 µM (≈ 12.5 µg/mL); in [1] it was 12.7 µM (≈ 25 µg/mL); in test [3], 12.7 µM (≈ 25 µg/mL); in [12] it was 12.7 µM and 25.4 µM; in test [13], 3.17 µM (≈ 6.25 µg/mL).
For `CC[C@H](C)[C@H](NC(=O)CN)C(=O)N[C@H](C(=O)N[C@@H](CC(=O)O)C(=O)N[C@@H](CC(C)C)C(=O)N[C@@H](CCCN=C(N)N)C(=O)NCC(=O)N[C@@H](CCSC)C(=O)N[C@@H](CC(C)C)C(=O)N[C@@H](CCCCN)C(=O)N[C@@H](CCCN=C(N)N)C(=O)N[C@@H](CC(C)C)C(=O)N[C@@H](CCCCN)C(=O)N[C@@H](CCCCN)C(=O)N[C@@H](CCSC)C(=O)N[C@@H](CCCCN)C(=O)O)[C@@H](C)O` [GITDLRGMLKRLKKMK], the MIC in test [14] is 5 µM (≈ 9.44 µg/mL); in test [15], 2.5 µM (≈ 4.72 µg/mL); in [16], 2.5 µM (≈ 4.72 µg/mL); in test [5], 5 µM (≈ 9.44 µg/mL); in [17], 2.5 µM (≈ 4.72 µg/mL).
For `CC[C@H](C)[C@H](NC(=O)[C@H](CC(=O)O)NC(=O)[C@H](Cc1ccccc1)NC(=O)[C@H](CC(C)C)NC(=O)CN)C(=O)N[C@H](C(=O)N[C@@H](CCCCN)C(=O)N[C@@H](CCCCN)C(=O)N[C@H](C(=O)N[C@H](C(=O)N[C@@H](CCCCN)C(=O)N[C@@H](CC(C)C)C(=O)N[C@@H](CC(C)C)C(=O)N[C@@H](CCCCN)C(N)=O)C(C)C)C(C)C)C(C)C` [GLFDIVKKVVKLLK], the MIC in test [18] was more than 20 µM; in test [19], 20 µM (≈ 32 µg/mL); in [20] it was 20 µM (≈ 32 µg/mL); in [1], more than 20 µM; in test [21], more than 20 µM; in test [3], more than 20 µM. The values for the MIC in test [22] and in test [23] were more than 20 µM and not below 50 µM, respectively.
In the case of `CC[C@H](C)[C@H](NC(=O)[C@H](CCCCN)NC(=O)CNC(=O)[C@H](CC(C)C)NC(=O)[C@@H](NC(=O)[C@H](C)NC(=O)[C@H](CCCCN)NC(=O)CNC(=O)[C@H](C)NC(=O)CNC(=O)[C@H](CCCCN)NC(=O)[C@H](CCSC)NC(=O)[C@H](CCCCN)NC(=O)[C@@H](NC(=O)[C@H](Cc1c[nH]c2ccccc12)NC(=O)[C@H](CC(C)C)NC(=O)[C@H](CCC(=O)O)NC(=O)[C@H](CCCCN)NC(=O)[C@H](CC(C)C)NC(=O)[C@@H](N)CC(C)C)[C@@H](C)O)C(C)C)C(=O)N[C@@H](CCCCN)C(=O)NCC(=O)N[C@@H](CC(C)C)C(=O)N[C@@H](CC(C)C)C(=O)O` [LLKELWTKMKGAGKAVLGKIKGLL], the MIC in test [18] stood at 1 µM (≈ 2.6 µg/mL); in test [24], 0.94 µM (≈ 2.44 µg/mL); in test [25] it was 15 µM (≈ 38.9 µg/mL); in test [26], 15 µM (≈ 38.9 µg/mL).
On to `NCCCC[C@H](NC(=O)[C@H](CCCCN)NC(=O)[C@H](Cc1c[nH]c2ccccc12)NC(=O)[C@H](Cc1c[nH]c2ccccc12)NC(=O)[C@H](CCCCN)NC(=O)[C@H](Cc1ccccc1)NC(=O)[C@H](CCCN=C(N)N)NC(=O)[C@H](Cc1c[nH]c2ccccc12)NC(=O)[C@@H](N)CCCN=C(N)N)C(=O)O` [RWRFKWWKK], for which the MIC was found to be 26.4 µM (≈ 37.5 µg/mL) in test [27]; 13 µM (≈ 18.5 µg/mL) in test [28]; 13 µM (≈ 18.5 µg/mL) in test [29]; 13 µM (≈ 18.5 µg/mL) in [30]; 13 µM (≈ 18.5 µg/mL) in test [31]; 26.4 µM (≈ 37.5 µg/mL) in test [1]. For the same compound, the MIC in test [7] amounted to 26.4 µM (≈ 37.5 µg/mL).
As for `CC(C)[C@H](N)C(=O)N[C@@H](CCCCN)C(=O)N[C@@H](CCCN=C(N)N)C(=O)N[C@@H](Cc1ccccc1)C(=O)N[C@@H](CCCCN)C(=O)N[C@@H](CCCCN)C(=O)N[C@@H](Cc1ccccc1)C(=O)N[C@@H](Cc1ccccc1)C(=O)N[C@@H](CCCN=C(N)N)C(=O)N[C@@H](CCCCN)C(=O)N[C@@H](Cc1ccccc1)C(=O)N[C@@H](CCCCN)C(=O)N[C@@H](CCCCN)C(=O)N[C@@H](Cc1ccccc1)C(=O)N[C@H](C(N)=O)C(C)C` [VKRFKKFFRKFKKFV], the minimal inhibitory concentration (MIC) in the test on Bacillus subtilis came out at 9.2 µM (≈ 18.7 µg/mL); against Candida albicans SC5314, 4.6 µM (≈ 9.35 µg/mL); in test [1], 4.6 µM (≈ 9.35 µg/mL); in test [32], 0.984 µM (≈ 2 µg/mL); against Escherichia coli it was 7.87 µM (≈ 16 µg/mL); with Listeria monocytogenes, 7.87 µM (≈ 16 µg/mL). Besides, the MIC in test [33] came out at 3.93 µM (≈ 8 µg/mL); in test [34] it was 9.2 µM (≈ 18.7 µg/mL); in test [35], 1.97 µM (≈ 4 µg/mL); against Staphylococcus aureus it was 3.93 µM (≈ 8 µg/mL).
